Test results published in patent US20250275976A1, “Methods of Treating Neuroinflammatory Conditions” (Athira Pharma, Inc., priority 2022, published 2025).
Entries after “also recorded” stand apart in the source; their conditions may differ.

Test system: male CD-1 mice
Experiment: T-maze spontaneous alternation, LPS-induced cognitive deficit
Assay type: in vivo, mouse
Details: for Reversal of LPS-induced cognitive deficit in T-maze (result in words): ANOVA, Fisher's PLSD, p<0.05, doses as in the value; for Spontaneous alternation (%) Mean: LPS 250 μg/kg i.p.; for Recovery (%): saline/vehicle = 100%, LPS/vehicle = 0%
Source text: Encephalitis refers to inflammation of the brain that may result in brain swelling fever, headache, confusion, and seizures. The source of neuroinflammation can vary widely, including due to viral, bacterial, parasitic, or fungal infection or due to autoimmune diseases. Lipopolysaccharide (LPS) is a bacterial endotoxin that induces an intense neuroinflammatory reaction and has been associated with cognitive decline. The ability of Compound A19 to reverse cognitive decline induced by LPS in a mouse model of encephalitis was studied using a T-maze assay. In a separate substantially similar assay, Compounds 1a and 5a were also assessed.
Spontaneous and continuous alternation is the innate tendency of rodents to alternate free choices in a T-maze (T-CAT) over a series of successive runs. This sequential procedure relies on working memory and is sensitive to various pharmacological manipulations affecting memory processes. The present studies were conducted to evaluate the abilities of Compound A19, Compound 1a and Compound 5a to reverse LPS-induced cognitive deficit in the T-maze assay.
Compound A19 was dissolved in 0.9% NaCl (saline) and vortexed periodically until complete dissolution and with the pH adjusted between 7.4 and 7.8. Compound A19 was used in concentrations of 0.125, 0.1, 0.05, 0.025 and 0.0125 mg/ml which when given in a volume of 10 ml/kg result in doses of 1.25, 1, 0.5, 0.25 and 0.125 mg/kg, respectively. Compound 1a was dissolved at 160 mg/ml in 100% DMSO and vortexed until complete dissolution. Then the above stock solution was diluted in 20% PEG-400 and 78% 0.9% NaCl, whereby the stock solution comprised 2% of the final solution. Compound 1a was used in concentrations of 0.05, 0.2, 0.8, 1.6 and 3.2 mg/ml which when given in a volume of 10 ml/kg result in doses of 0.5, 2, 8, 16 and 32 mg/kg, respectively. Compound 5a was dissolved at 100 mg/ml in 100% DMSO and vortexed until complete dissolution. Then the above stock solution was diluted in 20% PEG-400 and 78% 0.9% NaCl, whereby the stock solution comprised 2% of the final solution. Compound 5a was used in concentrations of 0.125, 0.25, 0.5, 1 and 2 mg/ml which when given in a volume of 10 ml/kg result in doses of 1.25, 2.5, 5, 10 and 20 mg/kg, respectively.
Memantine was dissolved in saline. Memantine was used in concentration of 0.1 and 0.01 mg/ml, which when given in a volume of 10 ml/kg result in a dose of 1 and 0.1 mg/kg, respectively. Memantine is approved for symptomatic treatment of Alzheimer's disease was used as a reference compound.
LPS was dissolved in saline and prepared at a concentration of 0.0125 mg/ml and given intraperitoneally (i.p.) at a dosage volume of 20 ml/kg to yield a dose of 0.25 mg/kg ([…]).
Four to five weeks old male CD-1 mice (Janvier; Le Genest St Isle - France) were used for the study.
LPS was injected i.p. 2 weeks prior the T-maze trial. Compound 1a was tested at doses of 0.5, 2, 8, 16, and 32 mg/kg administered orally (p.o.) for 14 days with last treatment given 60 min before the T-maze trial. Compound 5a was tested at the doses of 1.25, 2.5, 5, 10, and 20 mg/kg administered orally (p.o.) for 14 days with last treatment given 60 min before the T-maze trial. LPS was injected i.p. 2 weeks prior the T-maze trial.
The T-maze apparatus was made of gray Plexiglas with a main stem (55 cm long×10 cm wide×20 cm high) and two arms (30 cm long×10 cm wide×20 cm high) positioned at a 90-degree angle relative to the main stem. A start box (15 cm long×10 cm wide) was separated from the main stem by a guillotine door. Horizontal doors were also provided to close specific arms during the force choice alternation task.
The experimental protocol consisted of a single session, which started with one “forced-choice” trial, followed by 14 “free-choice” trials. In the “forced-choice” trial, the animal was confined 5 seconds in the start arm and was then released while either the left or right goal arm was blocked by a horizontal door. […]

CCC(C)CN1CC2N(C(=O)c3ccc(C(F)(F)F)cc3)CCC(=O)N2[C@@H](C)C1=O (some centres unmarked) [Compound 1a]
Reversal of LPS-induced cognitive deficit in T-maze (result in words): significant reversal of LPS-induced cognitive deficits at 2 mg/kg; also recorded: trending at 8 and 32 mg/kg; also recorded: reversed the LPS-induced cognitive disruption
Spontaneous alternation (%) Mean (Compound 1a 0.5 mg/kg p.o. daily 14 days): 49%
Spontaneous alternation (%) Mean (Compound 1a 0.5 mg/kg p.o. daily 14 days, listed as Cmpd 1a): 48.6%
Recovery (%) (Compound 1a 0.5 mg/kg p.o.): 17%
Spontaneous alternation (%) Mean (Compound 1a 2 mg/kg p.o. daily 14 days): 59%
Spontaneous alternation (%) Mean (Compound 1a 2 mg/kg p.o. daily 14 days, listed as Cmpd 1a): 58.6%
Recovery (%) (Compound 1a 2 mg/kg p.o.): 56%
Spontaneous alternation (%) Mean (Compound 1a 8 mg/kg p.o. daily 14 days): 56%
Spontaneous alternation (%) Mean (Compound 1a 8 mg/kg p.o. daily 14 days, listed as Cmpd 1a): 56.4%
Recovery (%) (Compound 1a 8 mg/kg p.o.): 47%
Spontaneous alternation (%) Mean (Compound 1a 16 mg/kg p.o. daily 14 days): 51%
Spontaneous alternation (%) Mean (Compound 1a 16 mg/kg p.o. daily 14 days, listed as Cmpd 1a): 51.4%
Recovery (%) (Compound 1a 16 mg/kg p.o.): 28%
Spontaneous alternation (%) Mean (Compound 1a 32 mg/kg p.o. daily 14 days): 56%
Spontaneous alternation (%) Mean (Compound 1a 32 mg/kg p.o. daily 14 days, listed as Cmpd 1a): 55.7%
Recovery (%) (Compound 1a 32 mg/kg p.o.): 44%

CCC(C)CN1CC2N(Cc3ccc(C(F)(F)F)cc3)CCC(=O)N2[C@@H](C)C1=O (some centres unmarked) [Compound 5a]
Reversal of LPS-induced cognitive deficit in T-maze (result in words): significant reversal of LPS-induced cognitive deficits at all doses; also recorded: reversed the LPS-induced cognitive disruption
Spontaneous alternation (%) Mean (Compound 5a 1.25 mg/kg p.o. daily 14 days): 59%
Spontaneous alternation (%) Mean (Compound 5a 1.25 mg/kg p.o. daily 14 days, listed as Cmpd 5a): 59.3%
Recovery (%) (Compound 5a 1.25 mg/kg p.o.): 58%
Spontaneous alternation (%) Mean (Compound 5a 2.5 mg/kg p.o. daily 14 days): 58%
Spontaneous alternation (%) Mean (Compound 5a 2.5 mg/kg p.o. daily 14 days, listed as Cmpd 5a): 57.9%
Recovery (%) (Compound 5a 2.5 mg/kg p.o.): 53%
Spontaneous alternation (%) Mean (Compound 5a 5 mg/kg p.o. daily 14 days): 61%
Spontaneous alternation (%) Mean (Compound 5a 5 mg/kg p.o. daily 14 days, listed as Cmpd 5a): 60.7%
Recovery (%) (Compound 5a 5 mg/kg p.o.): 64%
Spontaneous alternation (%) Mean (Compound 5a 10 mg/kg p.o. daily 14 days): 58%
Spontaneous alternation (%) Mean (Compound 5a 10 mg/kg p.o. daily 14 days, listed as Cmpd 5a): 57.9%
Recovery (%) (Compound 5a 10 mg/kg p.o.): 53%
Spontaneous alternation (%) Mean (Compound 5a 20 mg/kg p.o. daily 14 days): 60%
Spontaneous alternation (%) Mean (Compound 5a 20 mg/kg p.o. daily 14 days, listed as Cmpd 5a): 60.0%
Recovery (%) (Compound 5a 20 mg/kg p.o.): 61%
